Reference: patent US5741643A, “Oligonucleotide clamps” (Lynx Therapeutics, Inc., priority 1995, dated 1998)

How the values were obtained:
[1] = tested on: target polynucleotide 5'-[…]-3' (pol and nef genes of HIV); assay: Melting temperature of oligonucleotide clamp/target polynucleotide complex (260 nm absorption v. temperature curve); format: binding; conditions: half maximum of the 260 nm absorption v. temperature curve
Protocol: Preferably, stability of oligonucleotide clamp/target polynucleotide complexes are determined by way of melting, or strand dissociation, curves. The temperature of fifty percent strand dissociation is taken as the melting temperature, Tm, which, in turn, provides a convenient measure of stability. Tm measurements are typically carried out in a saline solution at neutral pH with target and clamp concentrations at between about 1.0-2.0 μM. Typical conditions are as follows: 150 mM NaCl and 10 mM MgCl2 in a 10 mM sodium phosphate buffer (pH 7.0) or in a 10 mM Tris-HCl buffer (pH 7.0); or like conditions. Data for melting curves are accumulated by heating a sample of the oligonucleotide clamp/target polynucleotide complex from room temperature to about 85°-90° C. As the temperature of the sample increases, absorbance of 260 nm light is monitored at 1° C. intervals, e.g. using a Cary (Australia) model 1E or a Hewlett-Packard (Palo Alto, Calif.) model HP 8459 UV/VIS spectrophotometer and model HP 89100A temperature controller, or like instruments.
The oligonucleotides and oligonucleotide clamps listed in the Table I below were synthesized in accordance with Example 1 for specific binding to the following single stranded or double stranded target polynucleotides:
The melting temperature of the following compounds were determined by computing the half maximum of the 260 nm absorption v. temperature curve, as described above: DL015:39.0° C.; DL014: 58° C.; DL013: 68.0° C.; DL021: 67.5° C.; DL022: 67.5° C.; and control (two unconnected oligonucleotides without binding moieties having sequences: 3'-TTTTCTTTTCCCCCCT-5' and 5'-TTTTC^Me TTTT(C^Me)6-3'): 32.0° C.

ATH8 cells = assay: Toxicity to ATH8 cells in the ATH8 cell assay; format: cell-based; conditions: 2 μM and 8 μM
Protocol: (§1) Each of the compounds of Table I were tested in an ATH8 cell assay to assess the inhibition of the cytopathic effects of HIV infection on the ATH8 cells. The ATH8 assay is described in the following reference: Matsukura, pages 285-304 in Antisense RNA and DNA (Wiley-Liss, New York, 1992).
(§2) The cytopathic effect examined in the assay was the lytic effect of HIV and/or drug on the ATH8 cells. A measure of the degree of viral activity is the degree to which cells are lysed at the end of a given time period in culture. Protection against lysis is measured by the size of pellet formed after cells are harvested from culture and centrifuged, as described in the references cited above.
(§3) Curves 1 and 2 illustrate results from positive and negative controls, i.e. curve 1 illustrates the results for uninfected ATH8 cells without drug (negative control) and curve 2 illustrates the results for infected ATH8 cells without drug (positive control). Curves 3 and 4 illustrate results from cultures containing 8 μM of oligonucleotide clamp in infected and uninfected ATH8 cells, respectively. Curves 5 and 6 illustrate results from cultures containing 2 μM of oligonucleotide clamp in infected and uninfected ATH8 cells, respectively.

[2] = tested on: HIV (infected ATH8 cells); assay: ATH8 cell assay: inhibition of the cytopathic (lytic) effects of HIV infection on ATH8 cells; format: cell-based; conditions: 2 μM and 8 μM
Protocol: as §1, §2, §3

| Substance | melting temperature [1] | toxicity (FIG. 3), in words (ATH8 cells) | change in pellet size versus time (FIG. 3), effect in words [2] |
| --- | --- | --- | --- |
| 5'-CACTTTTCTTTTGGGGGGTCACACTCCCCCCTTTTCTTTTAC (chemistry not given here) [DL015] | 39.0 °C | – | – |
| 5'-Chol-TTTTCTTTTCACACTTTTCTTTTGGGGGGTCACACTCCCCCC-Chol [DL021] | 67.5 °C | – | – |
| 5'-CACTTTTCTTTTGGGGGGTCACACTCCCCCCTTTTCTTTTAC-Chol [DL014] | 58 °C | without toxicity | clear and positive effect at both concentrations |
| 5'-Chol-CACTTTTCTTTTCCCCCCTCACACACTCCCCCCTTTTCTTTTAC-Chol [DL022] | 67.5 °C | – | – |
| 5'-Chol-CACTTTTCTTTTGGGGGGTCACACTCCCCCCTTTTCTTTTAC-Chol [DL013] | 68.0 °C | – | – |
